Measured values published in patent US7446117B2, “Cox-2 inhibiting pyridine derivatives” (Glaxo Group Limited, priority 2002, dated 2008).

Target: T1, microsomal h-COX2 (Homo sapiens, UniProt P35354)
T1 construct: made in house; host or cells: baculovirus infected SF9 cells (microsomal preparation)
T1 sequence (P35354 18-604): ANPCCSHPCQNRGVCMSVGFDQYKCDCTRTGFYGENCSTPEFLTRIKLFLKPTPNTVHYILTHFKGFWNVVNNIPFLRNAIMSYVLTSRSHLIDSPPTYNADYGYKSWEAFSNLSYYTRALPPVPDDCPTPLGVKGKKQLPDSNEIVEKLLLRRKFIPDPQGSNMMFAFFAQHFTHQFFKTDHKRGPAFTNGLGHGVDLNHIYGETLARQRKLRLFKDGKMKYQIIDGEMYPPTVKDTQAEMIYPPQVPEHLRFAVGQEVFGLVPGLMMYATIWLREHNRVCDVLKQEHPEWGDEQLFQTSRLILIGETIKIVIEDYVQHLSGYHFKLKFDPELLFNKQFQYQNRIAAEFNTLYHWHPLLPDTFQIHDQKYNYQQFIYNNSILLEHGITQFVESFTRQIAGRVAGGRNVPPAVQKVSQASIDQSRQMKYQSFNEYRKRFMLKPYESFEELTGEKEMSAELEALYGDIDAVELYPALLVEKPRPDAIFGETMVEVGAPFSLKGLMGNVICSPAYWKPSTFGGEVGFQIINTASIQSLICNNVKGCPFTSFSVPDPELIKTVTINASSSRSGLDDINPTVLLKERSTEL
Assay: Microsomal assay: inhibitory activity against microsomal h-COX2
Assay type: biochemical
Conditions: microsomal preparation from baculovirus infected SF9 cells; 1 hour incubation with compound; 0.1 μM arachidonic acid, 10 minutes; PGE2 by EIA; read-out: IC50 values for inhibition of COX-2
Protocol: Biological Data Microsomal Assay
Inhibitory activity against microsomal h-COX2 was assessed against a microsomal preparation from baculovirus infected SF9 cells. An aliquot of microsomal preparation was thawed slowly on ice and a 1/40,000 dilution prepared from it into the assay buffer (sterile water, degassed with argon containing 100 mM HEPES (pH 7.4), 10 mM EDTA (pH7.4), 1 mM phenol, 1 mM reduced glutathione, 20 mg/ml gelatin and 0.001 mM Hematin). Once diluted the enzyme solution was then sonicated for 5 seconds (Branson sonicator, setting 4, 1 cm tip) to ensure a homogeneous suspension. 155 μl enzyme solution was then added to each well of a 96-well microtitre plate containing either 5 μl test compound (40× required test concentration) or 5 μl DMSO for controls. Plates were then mixed and incubated at room temperature for 1 hour. Following the incubation period, 40 μl of 0.5 μM arachidonic acid was added to each well to give a final concentration of 0.1 μM. Plates were then mixed and incubated for exactly 10 minutes (room temperature) prior to addition of 25 μl 1M HCl (hydrochloric acid) to each well to stop the reaction. 25 μl of 1M NaOH (sodium hydroxide) was then added to each well to neutralise the solution prior to determination of PGE2 levels by enzyme immunoassay (EIA).

SMILES	IC50 [nM]
CS(=O)(=O)c1ccc(-c2cc(C(F)(F)F)cc(OCc3cccnc3)n2)cc1 [Example 166]	≤ 500
Cc1ccc(Oc2cc(C(F)(F)F)cc(-c3ccc(S(C)(=O)=O)cc3)n2)cn1 [Example 167]	≤ 500
CS(=O)(=O)c1ccc(-c2cc(C(F)(F)F)cc(NCc3cnccn3)n2)cc1 [Example 168]	≤ 500
CS(=O)(=O)c1ccc(-c2cc(C(F)(F)F)cc(Nc3ccc(F)cc3)n2)cc1 [Example 169]	≤ 500
CN(Cc1ccco1)c1cc(C(F)(F)F)cc(-c2ccc(S(C)(=O)=O)cc2)n1 [Example 170]	≤ 500
Cn1cc(CNc2cc(C(F)(F)F)cc(-c3ccc(S(C)(=O)=O)cc3)n2)cn1 [Example 171]	≤ 500
Cn1ncnc1CNc1cc(C(F)(F)F)cc(-c2ccc(S(C)(=O)=O)cc2)n1 [Example 173]	≤ 500
CS(=O)(=O)c1ccc(-c2cc(C(F)(F)F)cc(NCc3cccs3)n2)cc1 [Example 174]	≤ 500
CS(=O)(=O)c1ccc(-c2cc(C(F)(F)F)cc(NCC3CCOCC3)n2)cc1 [Example 175]	≤ 500
Cc1ccc(Nc2cc(C(F)(F)F)cc(-c3ccc(S(C)(=O)=O)cc3)n2)c(C)n1 [Example 178]	≤ 500
Cc1cccc(CNc2cc(C(F)(F)F)cc(-c3ccc(S(C)(=O)=O)cc3)n2)n1 [Example 180]	≤ 500
Cc1ccc(Oc2cc(C(F)(F)F)cc(-c3ccc(S(C)(=O)=O)cc3)n2)c(C)n1 [Example 183]	≤ 500
Cc1cccc(COc2cc(C(F)(F)F)cc(-c3ccc(S(C)(=O)=O)cc3)n2)n1 [Example 184]	≤ 500
Cc1ncccc1COc1cc(C(F)(F)F)cc(-c2ccc(S(C)(=O)=O)cc2)n1 [Example 185]	≤ 500
Cc1ccc(COc2cc(C(F)(F)F)cc(-c3ccc(S(C)(=O)=O)cc3)n2)cn1 [Example 186]	≤ 500
Cc1nn(C)cc1CNc1cc(C(F)(F)F)cc(-c2ccc(S(C)(=O)=O)cc2)n1 [Example 187]	≤ 500
Cc1c(CNc2cc(C(F)(F)F)cc(-c3ccc(S(C)(=O)=O)cc3)n2)cnn1C [Example 188]	≤ 500
Cc1csc(CNc2cc(C(F)(F)F)cc(-c3ccc(S(C)(=O)=O)cc3)n2)n1 [Example 189]	≤ 500
CS(=O)(=O)c1ccc(-c2cc(C(F)(F)F)cc(Oc3cncc(Cl)c3)n2)cc1 [Example 190]	≤ 500
CS(=O)(=O)c1ccc(-c2cc(C(F)(F)F)cc(Nc3ccc(Cl)nn3)n2)cc1 [Example 191]	≤ 500
Cc1ccc(CNc2nc(-c3ccc(S(C)(=O)=O)cc3)cc(C)c2C#N)cn1 [Example 192]	≤ 500
CCN(Cc1ccccc1)c1cc(C(F)(F)F)cc(-c2ccc(S(C)(=O)=O)cc2)n1 [Example 193]	≤ 500

SMILES	IC50 [nM]
CCOC(=O)c1c(CC)cc(-c2ccc(S(C)(=O)=O)cc2)nc1NCc1ccccc1 [Example 197]	≤ 500
CS(=O)(=O)c1ccc(-c2cc(C(F)(F)F)cc(OCc3ccc(Br)cn3)n2)cc1 [Example 200]	≤ 500
CS(=O)(=O)c1ccc(-c2cc(C(F)(F)F)cc(OCc3ccncc3Br)n2)cc1 [Example 201]	≤ 500
Cc1cc(NCc2conc2C)nc(-c2ccc(S(C)(=O)=O)cc2)c1 [Example 202]	≤ 500
CCc1cc(NCc2nccn2CC)nc(-c2ccc(S(C)(=O)=O)cc2)c1 [Example 204]	≤ 500
Cc1cc(-c2ccc(S(C)(=O)=O)cc2)nc(N(C)Cc2nccn2C)c1C#N [Example 205]	≤ 500
CS(=O)(=O)c1ccc(-c2cc(C(F)(F)F)cc(N[C@H]3CC[C@@H](C)CC3)n2)cc1 [Example 206]	≤ 500
CS(=O)(=O)c1ccc(-c2cc(C(F)(F)F)cc(N[C@H]3CC[C@H](C)CC3)n2)cc1 [Example 207]	≤ 500
CS(=O)(=O)c1ccc(-c2cc(C(F)(F)F)cc(NCc3ccccn3)n2)cc1 [Example 208]	≤ 500
CS(=O)(=O)c1ccc(-c2cc(C(F)(F)F)cc(NC3CCCCCC3)n2)cc1 [Example 209]	≤ 500
Cc1cc(-c2ccc(S(C)(=O)=O)cc2)nc(NCc2ccccn2)c1C#N [Example 210]	≤ 500
CCC(CC)Nc1cc(C(F)(F)F)cc(-c2ccc(S(C)(=O)=O)cc2)n1 [Example 211]	≤ 500
CS(=O)(=O)c1ccc(-c2cc(C(F)(F)F)cc(NC3CCC3)n2)cc1 [Example 212]	≤ 500
Cc1noc(CNc2cc(C(F)(F)F)cc(-c3ccc(S(C)(=O)=O)cc3)n2)n1 [Example 213]	≤ 500
Cc1nc(CNc2cc(C(F)(F)F)cc(-c3ccc(S(C)(=O)=O)cc3)n2)no1 [Example 214]	≤ 500
CCc1cc(-c2ccc(S(C)(=O)=O)cc2)nc(OCc2ccccn2)c1C#N [Example 217]	≤ 500
Cc1cc(NCc2ccnn2C)nc(-c2ccc(S(C)(=O)=O)cc2)c1 [Example 218]	≤ 500
CS(=O)(=O)c1ccc(-c2cc(C(F)(F)F)cc(NCC3CCCC3)n2)cc1 [Example 219, N-(cyclopentanemethyl)-4-(trifluoromethyl)-6-[4-(methylsulfonyl)phenyl]pyridine-2-amine]	≤ 500
CCc1cc(-c2ccc(S(C)(=O)=O)cc2)nc(OCc2ccccn2)c1Cl [Example 220]	≤ 500
CCO[C@H]1CC[C@H](Nc2cc(C(F)(F)F)cc(-c3ccc(S(C)(=O)=O)cc3)n2)CC1 [Example 221]	≤ 500
CCc1cc(-c2ccc(S(C)(=O)=O)cc2)nc(NCc2ccccn2)c1C#N [Example 222, 4-Ethyl-6-[4-(methylsulfonyl)phenyl]-2-[(2-pyridinylmethyl)amino]-3-pyridinecarbonitrile]	≤ 500
CCc1cc(-c2ccc(S(C)(=O)=O)cc2)nc(NCc2ccc(C)cn2)c1C#N [Example 223]	≤ 500

The remaining lines, values ahead:

IC50 [nM]	SMILES
≤ 500	Cc1cc(-c2ccc(S(C)(=O)=O)cc2)nc(NCc2cnn(C)c2)c1C#N [Example 131]
≤ 500	CCc1cc(OCc2cccnc2C)nc(-c2ccc(S(C)(=O)=O)cc2)c1 [Example 133]
≤ 500	CCc1cc(OCc2ccc(C)nc2)nc(-c2ccc(S(C)(=O)=O)cc2)c1 [Example 134]
≤ 500	CCc1cc(OCc2cccc(C)n2)nc(-c2ccc(S(C)(=O)=O)cc2)c1 [Example 135]
≤ 500	CCc1cc(NCc2cnn(C)c2C)nc(-c2ccc(S(C)(=O)=O)cc2)c1 [Example 139]
≤ 500	CCc1cc(NCc2nc(C)cs2)nc(-c2ccc(S(C)(=O)=O)cc2)c1 [Example 142]
≤ 500	CCc1cc(-c2ccc(S(C)(=O)=O)cc2)nc(NCc2cnn(C)c2)c1F [Example 143]
≤ 500	CCc1cc(NCc2cnn(CF)c2)nc(-c2ccc(S(C)(=O)=O)cc2)c1 [Example 144]
≤ 500	Cc1cc(-c2ccc(S(C)(=O)=O)cc2)nc(NCc2cnn(C)c2)c1Cl [Example 147]
≤ 500	CCc1cc(-c2ccc(S(C)(=O)=O)cc2)nc(NCc2ccccc2)c1C#N [Example 148]
≤ 500	Cc1ccc(COc2nc(-c3ccc(S(C)(=O)=O)cc3)cc(C)c2C#N)cn1 [Example 149]
≤ 500	CS(=O)(=O)c1ccc(-c2cc(C(F)(F)F)cc(Oc3cccnc3)n2)cc1 [Example 150]
≤ 500	CC(C)(C)c1cc(NCc2ccccc2)nc(-c2ccc(S(C)(=O)=O)cc2)c1 [Example 151]
≤ 500	CS(=O)(=O)c1ccc(-c2cc(C(F)(F)F)cc(NCc3ncc[nH]3)n2)cc1 [Example 153]
≤ 500	CCOc1ccc(Nc2cc(CC)cc(-c3ccc(S(C)(=O)=O)cc3)n2)cc1 [Example 154]
≤ 500	Cc1cc(OCc2ccc(C)nc2)nc(-c2ccc(S(C)(=O)=O)cc2)c1 [Example 158]
≤ 500	Cc1ncccc1Nc1cc(C(F)(F)F)cc(-c2ccc(S(C)(=O)=O)cc2)n1 [Example 160]
≤ 500	Cc1cccc(Nc2cc(C(F)(F)F)cc(-c3ccc(S(C)(=O)=O)cc3)n2)n1 [Example 162]
≤ 500	Cc1ccc(Nc2cc(C(F)(F)F)cc(-c3ccc(S(C)(=O)=O)cc3)n2)cn1 [Example 163]
≤ 500	CS(=O)(=O)c1ccc(-c2cc(C(F)(F)F)cc(OCc3ccccn3)n2)cc1 [Example 164, 2-[4-(methylsulfonyl)phenyl]-6-[(2-pyridinylmethyl)oxy]-4-(trifluoromethyl)pyridine]
≤ 500	Cc1ncccc1Oc1cc(C(F)(F)F)cc(-c2ccc(S(C)(=O)=O)cc2)n1 [Example 165]
